Data taken from patent publication EP0908457B1, “3-(1,2-benzisothiazol- and isoxazol-5-Y1)-2,4(1H,3H)-pyrimidinedione or thione and 3-(1,2-benzisothiazol- and isoxazol-5-y1)-4(3H)-pyrimidinone or thione herbicidal agents” (BASF AKTIENGESELLSCHAFT, priority 1997, dated 1999).

Legend:
[1] = tested on: Echinochloa oryzoides (Ard.) Fritsch.; assay: Preemergence weed control under flooded paddy conditions, ECHORC (Watergrass (Calif.)); assay type: in vivo; conditions: preemergence weeds, flooded paddy, rated three to four weeks after treatment
Cyperus iria = assay: Preemergence weed control under flooded paddy conditions, CYPIR (Rice Flatsedge); assay type: in vivo; conditions: preemergence weeds, flooded paddy, rated three to four weeks after treatment
[2] = tested on: Cyperus serotinus, Rottb.; assay: Preemergence weed control under flooded paddy conditions, CYPSE (Flatsedge); assay type: in vivo; conditions: preemergence weeds, rated three to four weeks after treatment
[3] = tested on: Monochoria vaginalis, Presl.; assay: Preemergence weed control under flooded paddy conditions, MOOVA (Monochoria); assay type: in vivo; conditions: preemergence weeds, flooded paddy, rated three to four weeks after treatment
Sagittaria pygmaea, L. = assay: Preemergence weed control under flooded paddy conditions, SAGPY (Arrowhead (Pygmaea)); assay type: in vivo; conditions: preemergence weeds, flooded paddy, rated three to four weeks after treatment
[4] = tested on: Oryza sativa, (L.) Tebonnet; assay: Rice tolerance to post-transplant applications under flooded paddy conditions (Example 187), ORYSAT (Rice, Tebonnet); conditions: rated three to four weeks after treatment
Note: meaning of each grade not given here.

Compound | herbicidal effect rating, ECHORC ([1]; Rate 0.0320 kg/ha) | herbicidal effect rating, ECHORC ([1]; Rate 0.0620 kg/ha) | herbicidal effect rating, ECHORC ([1]; Rate 0.1250 kg/ha) | herbicidal effect rating, ECHORC ([1]; Rate 0.2500 kg/ha) | herbicidal effect rating, CYPIR (Cyperus iria; Rate 0.0320 kg/ha) | herbicidal effect rating, CYPIR (Cyperus iria; Rate 0.0620 kg/ha) | herbicidal effect rating, CYPIR (Cyperus iria; Rate 0.1250 kg/ha) | herbicidal effect rating, CYPIR (Cyperus iria; Rate 0.2500 kg/ha) | herbicidal effect rating, CYPSE ([2]; Rate 0.0320 kg/ha) | herbicidal effect rating, CYPSE ([2]; Rate 0.0620 kg/ha) | herbicidal effect rating, CYPSE ([2]; Rate 0.1250 kg/ha) | herbicidal effect rating, CYPSE ([2]; Rate 0.2500 kg/ha) | herbicidal effect rating, MOOVA ([3]; Rate 0.0320 kg/ha) | herbicidal effect rating, MOOVA ([3]; Rate 0.0620 kg/ha) | herbicidal effect rating, MOOVA ([3]; Rate 0.1250 kg/ha) | herbicidal effect rating, MOOVA ([3]; Rate 0.2500 kg/ha) | herbicidal effect rating, SAGPY (Sagittaria pygmaea, L.; Rate 0.0320 kg/ha) | herbicidal effect rating, SAGPY (Sagittaria pygmaea, L.; Rate 0.0620 kg/ha) | herbicidal effect rating, SAGPY (Sagittaria pygmaea, L.; Rate 0.1250 kg/ha) | herbicidal effect rating, SAGPY (Sagittaria pygmaea, L.; Rate 0.2500 kg/ha) | also measured
Cn1c(C(F)(F)F)cc(=O)n(-c2ccc3snc(C(=O)NS(=O)(=O)CCl)c3c2)c1=O [Example 324, 1,2-Benzisothiazole-3-carboxamide, N-[(chloromethyl)sulfonyl]-5-[3,6-dihydro-3-methyl-2,6-dioxo-4-(trifluoromethyl)-1(2H)-pyrimidinyl]-] | 0.0 | 4.0 | 5.0 | 6.0 | 9.0 | 9.0 | 9.0 | 9.0 | 0.0 | 0.0 | 3.0 | 7.0 | 9.0 | 9.0 | 9.0 | 9.0 | 0.0 | 3.0 | 9.0 | 9.0 | herbicidal effect rating ORYSAT ([4]; Rate 0.0320 kg/ha): 3.0; herbicidal effect rating ORYSAT ([4]; Rate 0.0620 kg/ha): 4.0; herbicidal effect rating ORYSAT ([4]; Rate 0.1250 kg/ha): 7.0; herbicidal effect rating ORYSAT ([4]; Rate 0.2500 kg/ha): 9.0
COC(=O)C(C)Oc1cccc(-c2nsc3ccc(-n4c(=O)cc(C(F)(F)F)n(C)c4=O)cc23)c1 (stereo not drawn) [Example 325, Propionic acid, 2-{m-{5-[3,6-dihydro-3-methyl-2,6-dioxo-4-(trifluoromethyl)-1-(2H)-pyrimidinyl]-1,2-benzisothiazol-3-yl}phenoxy}-, methyl ester] | 7.7 | 9.0 | 9.0 | 9.0 | 8.0 | 8.7 | 9.0 | 9.0 | 4.7 | 9.0 | 7.3 | 9.0 | 8.0 | 9.0 | 9.0 | 9.0 | 4.0 | 4.3 | 6.3 | 9.0 | herbicidal effect rating ORYSAT ([4]; Rate 0.0320 kg/ha): 2.7; herbicidal effect rating ORYSAT ([4]; Rate 0.0620 kg/ha): 3.0; herbicidal effect rating ORYSAT ([4]; Rate 0.1250 kg/ha): 3.7; herbicidal effect rating ORYSAT ([4]; Rate 0.2500 kg/ha): 4.0
C#CCOC(=O)COc1cccc(-c2nsc3ccc(-n4c(=O)cc(C(F)(F)F)n(C)c4=O)cc23)c1 [Example 326, Acetic acid, {m-{5-[3,6-dihydro-3-methyl-2,6-dioxo-4-(trifluoromethyl)-1(2H)-pyrimidinyl]-1,2-benzisothiazol-3-yl}phenoxy}-, 2-propynyl ester] | 5.5 | 8.5 | 9.0 | 9.0 | 6.0 | 7.0 | 7.0 | 9.0 | 4.0 | 4.5 | 4.5 | 7.5 | 9.0 | 9.0 | 9.0 | 9.0 | 0.0 | 1.0 | 5.5 | 9.0 | herbicidal effect rating ORYSAT ([4]; Rate 0.0320 kg/ha): 5.5; herbicidal effect rating ORYSAT ([4]; Rate 0.0620 kg/ha): 5.5; herbicidal effect rating ORYSAT ([4]; Rate 0.1250 kg/ha): 5.5; herbicidal effect rating ORYSAT ([4]; Rate 0.2500 kg/ha): 5.5
CN(C)C(=O)c1nsc2ccc(-n3c(=O)cc(C(F)(F)F)n(C)c3=O)cc12 [Example 329, 1,2-Benzisothiazole-3-carboxamide, 5-[3,6-dihydro-3-methyl-2,6-dioxo-4-(trifluoromethyl)-1(2H)-pyrimidinyl]-N,N-dimethyl-] | 2.0 | 3.0 | 3.0 | 3.0 | 0.0 | 0.0 | 0.0 | 0.0 | 0.0 | 0.0 | 0.0 | 0.0 | 9.0 | 9.0 | 9.0 | 9.0 | 3.0 | 4.0 | 4.0 | 4.0 | herbicidal effect rating ORYSAT ([4]; Rate 0.0320 kg/ha): 3.0; herbicidal effect rating ORYSAT ([4]; Rate 0.0620 kg/ha): 3.0; herbicidal effect rating ORYSAT ([4]; Rate 0.1250 kg/ha): 3.0; herbicidal effect rating ORYSAT ([4]; Rate 0.2500 kg/ha): 3.0
CC(C)NC(=O)c1nsc2ccc(-n3c(=O)cc(C(F)(F)F)n(C)c3=O)cc12 [Example 330, 1,2-Benzisothiazole-3-carboxamide, 5-[3,6-dihydro-3-methyl-2,6-dioxo-4-(trifluoromethyl)-1(2H)-pyrimidinyl]-N-isopropyl-] | 7.0 | 7.0 | 9.0 | 9.0 | 0.0 | 0.0 | 6.0 | 6.0 | 5.0 | 5.0 | 5.0 | 5.0 | 9.0 | 9.0 | 9.0 | 9.0 | 0.0 | 0.0 | 0.0 | 0.0 | herbicidal effect rating ORYSAT ([4]; Rate 0.0320 kg/ha): 7.0; herbicidal effect rating ORYSAT ([4]; Rate 0.0620 kg/ha): 7.0; herbicidal effect rating ORYSAT ([4]; Rate 0.1250 kg/ha): 7.0; herbicidal effect rating ORYSAT ([4]; Rate 0.2500 kg/ha): 7.0
Cn1c(C(F)(F)F)cc(=O)n(-c2ccc3snc(C(=O)Nc4cc(C(C)(C)C)on4)c3c2)c1=O [Example 331, 1,2-Benzisothiazole-3-carboxamide, N-(5-tert-butylisoxazol-3-yl)-5-[3,6-dihydro-3-methyl-2,6-dioxo-4-(trifluoromethyl)-1(2H)-pyrimidinyl]-] | 0.0 | 2.0 | 4.0 | 8.0 | 0.0 | 0.0 | 5.0 | 9.0 | 0.0 | 0.0 | 0.0 | 0.0 | 9.0 | 9.0 | 9.0 | 9.0 | 0.0 | 0.0 | 0.0 | 0.0 | herbicidal effect rating ORYSAT ([4]; Rate 0.0320 kg/ha): 0.0; herbicidal effect rating ORYSAT ([4]; Rate 0.0620 kg/ha): 0.0; herbicidal effect rating ORYSAT ([4]; Rate 0.1250 kg/ha): 0.0; herbicidal effect rating ORYSAT ([4]; Rate 0.2500 kg/ha): 1.0
COC(=O)COc1cccc(-c2nsc3ccc(-n4c(=O)cc(C(F)(F)F)n(C)c4=O)cc23)c1 [Example 332, Acetic acid, {m-{5-[3,6-dihydro-3-methyl-2,6-dioxo-4-(trifluoromethyl)-1(2H)-pyrimidinyl]-1,2-benzisothiazol-3-yl}phenoxy}-, methyl ester] | 6.5 | 8.5 | 9.0 | 9.0 | 9.0 | 9.0 | 9.0 | 9.0 | 4.0 | 4.5 | 4.5 | 7.5 | 9.0 | 9.0 | 9.0 | 9.0 | 3.0 | 3.5 | 6.5 | 9.0 | herbicidal effect rating ORYSAT ([4]; Rate 0.0320 kg/ha): 5.5; herbicidal effect rating ORYSAT ([4]; Rate 0.0620 kg/ha): 5.5; herbicidal effect rating ORYSAT ([4]; Rate 0.1250 kg/ha): 5.5; herbicidal effect rating ORYSAT ([4]; Rate 0.2500 kg/ha): 7.5
